This note sets out measurements from ChEMBL document CHEMBL1134953, “Two selective novel triterpene glycosides from sea cucumber, Telenata Ananas: inhibitors of chemokine receptor-5” (Bioorg Med Chem Lett, 2002).

For this assay, the target named is C-C chemokine receptor type 5 (Homo sapiens, UniProt P51681). Description: Inhibitory activity against human CCR5 chemokine receptor (CCR5) expressed in CHO cells. The assay is classed as cell-based.
Sequence of C-C chemokine receptor type 5 (P51681 whole entry): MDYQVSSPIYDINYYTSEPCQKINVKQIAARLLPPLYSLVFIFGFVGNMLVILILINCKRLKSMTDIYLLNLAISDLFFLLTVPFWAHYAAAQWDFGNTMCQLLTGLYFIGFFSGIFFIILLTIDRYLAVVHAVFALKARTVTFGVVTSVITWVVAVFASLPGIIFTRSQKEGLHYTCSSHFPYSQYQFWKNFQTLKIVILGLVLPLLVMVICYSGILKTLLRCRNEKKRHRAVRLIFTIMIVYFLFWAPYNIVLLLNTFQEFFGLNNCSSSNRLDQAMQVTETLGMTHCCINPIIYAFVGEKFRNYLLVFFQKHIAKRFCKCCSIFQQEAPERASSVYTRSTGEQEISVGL

Broadly, the Ki is the equilibrium dissociation constant of an inhibitor or competing ligand from its target. A higher Ki goes with lower affinity. Consider `COC1[C@@H](O)C(OC2[C@@H](O)[C@H](O[C@H]3[C@H](O)[C@@H](O)[C@H](O[C@H]4[C@H](O[C@H]5CC[C@]6(C)C7=C[C@H](O)C89C(=O)O[C@@](C)(CCCC(C)C)C8CC[C@@]9(C)C7CCC6C5(C)C)OC[C@@H](O[C@@H]5O[C@H](CO)[C@@H](O)[C@H](OC6O[C@H](CO)[C@@H](O)[C@H](OC)[C@H]6O)[C@H]5O)[C@@H]4O)O[C@@H]3C)O[C@H](CO)[C@H]2O)O[C@H](CO)[C@H]1O` (some centres not stated), for which the affinity corresponds to a Ki of 5.1 µM.
The same measure for `C[C@H]1O[C@@H](O[C@H]2[C@H](O[C@H]3CC[C@]4(C)C5=C[C@H](O)C67C(=O)O[C@@](C)(C8CCC(C)(C)O8)[C@@]6(O)CC[C@@]7(C)C5CCC4C3(C)C)OC[C@@H](O[C@@H]3O[C@H](CO)[C@@H](O)[C@H](O)[C@H]3O)[C@@H]2O)[C@H](O)[C@@H](O)[C@@H]1O` (some centres not stated): 30 µM.
